# According to patent US10092595B2, “Compositions and methods for treating inflammatory arthritis” (priority 2009, dated 2018):
# “Also recorded” adds a separate entry of the source. Square brackets hold non-standard residues; d marks the D form. Peptide text beside a SMILES is read from it. * marks the point of attachment. Nva = CCC[C@H](N)C(=O)O; Cbz = O=C(OCc1ccccc1)*; CH2F = FC*
# Legend:
# MH7A cells [1] = tested on: MH7A cells
# Procedure: Cells were maintained in RPMI1640 (Invitrogen, Carlsbad, Calif., USA) supplemented with 10% heat inactivated fetal bovine serum (FBS; Invitrogen) in 5% CO2 at 37° C.
# Cellular proliferation was assessed by an MTT assay (GE Healthcare, Piscataway, N.J., USA) (Cheung et al., Cancer Lett., 246:122-8 (2007)). Cells (2×10^4 cells/well in 96-well plates) were incubated overnight before treatment with controls or reagents for 2-6 days. The treated cells were then incubated with the MTT labeling solution (10 μL/well). After 4 hours of incubation, cells were lyzed, and formazan crystals solubilized overnight at 37° C. Formazean signal was detected at 570 nm (μ-Quant™ microplate spectrometer, Bio-Tek Instruments Inc., VT, USA). Data obtained were analyzed by the KC junior software (BLD Science, Garner, N.C., USA).
# [2] = RA patients; cited from earlier work
# gp130 [3] = test: Western blot of gp130 expression in MH7A cells; assay type: cell-based; conditions: for effect of pre-incubation with inhibitor on As2O3-induced decrease in gp130: NH4Cl 2.5 mM, MG115 10 μM, Z-VAD-FMK 25 μM, As2O3 5 μM
# Procedure: (§1) Western blot analysis was performed (Pang et al., Gastroenterology, 132:1088-103 (2007)). Cell lysis and protein collection was conducted according to standard protocols. Protein samples (typically 30 μg) were separated by sodium dodecyl sulfate-polyacrylamide gel electrophoresis (SDS-PAGE) in 12% resolving gel and electro-transferred to nitrocellulose membranes (400 mA for 2 hours). After blocking with tris-buffered saline-TWEEN (TBS-T) containing 5% non-fat milk at room temperature for 30 minutes, membranes were incubated with the primary antibody and TBS-T with 5% bovine serum albumin at 4° C. overnight. The membranes were then washed thrice with TBS-T, and incubated for 1 hour at room temperature with 1:2000 horseradish peroxidase-conjugated secondary antibodies (Amersham-Pharmacia Biotechnology, Piscataway, N.J., USA). Immunoreactive bands were detected with chemiluminescence using the SuperSignal West Pico Chemiluminescent Substrate (Pierce Chemical Co., Rockford, Ill., USA), and visualized on X-ray films. Densitometric quantification of band signals was performed using ImageJ 1.36b software (National Institutes of Health, USA). All experiments were performed in triplicates.
# JNK = test: Western blot of JNK phosphorylation in MH7A cells; assay type: cell-based
# Procedure: as §1
# GP130 gene = test: RT-PCR and Q-PCR of gp130 gene transcription in MH7A cells; assay type: cell-based
# Procedure: (§2) Total RNA was prepared using TRIzol (Invitrogen). Reverse transcription PCR (RT-PCR) was performed (Cheung, et al., Cancer Lett., 246:122-8 (2007)). RNA was reverse transcribed with the Superscript™ III First-Strand Synthesis System (Invitrogen) according to the manufacturer's instructions. Reaction mixes contained 1.2 μL of cDNA, 18 μL of Platinum® PCR Supermix (Invitrogen) and 200 nM of each pair of primers.
# Quantitative-RT-PCR (Q-PCR) for GP130 was performed with the Assays-on-Demand™ Gene Expression System (AssayID: Hs00174360_m1, PE Biosystems, Foster City, Calif., USA) according to the manufacturer's instructions. The reaction mix contained 2 μL of cDNA, 10 μL of TaqMan® Universal PCR Master Mix, 1 μL of Assay-on-Demand™ Gene Expression Assay Mix, and RNase-free water to a volume of 20 μL. Q-PCR was performed with the ABI Prism 7700 Sequence Detector (PE Biosystems). […] Real-time PCR amplification data were collected continuously and analyzed with the ABI Prism 7700 Sequence Detector. Relative gene expression to the control calibrator, and normalized to the internal control, was calculated by the ΔΔCT method (ABI user bulletin number 2, PE Biosystem) (Cheung, et al., Cancer Lett., 246:122-8 (2007)). […]
# caspase 3 = test: Western blot of caspase 3 activation in MH7A cells; assay type: cell-based
# Procedure: as §1
# [4] = oral As2O3; cited from earlier work
# gp130 [5] = test: Immunoprecipitation of gp130 and Western blot with anti-ubiquitin antibodies FK1 and FK2; assay type: cell-based; conditions: 100 μM As2O3, 0, 4 or 6 hours; FK2 positive, FK1 negative
# Procedure: Immunoblot analysis was performed with gp130 ubiquitinylation. MH7A cells are incubated with 100 μM As2O3 for 0, 4 or 6 hours. Antibody to gp130 is used for immunoprecipitation (IP) of total cell lysates, followed by Western blot analysis with anti-ubiquitin antibodies FK1 and FK2. IP with non-immune rabbit serum (NIS) serves as control.
# Immunoprecipitation was performed by standard procedures (Pang et al., Gastroenterology, 132:1088-103 (2007)). Cells were washed with ice-cold PBS supplemented with 1 mM sodium orthovanadate and Complete protease inhibitor cocktail (Complete; Roche Molecular Biochemicals), and lysed with buffer (50 mM Tris-HCl, pH: 7.5, 100 mM NaCl, 1% Triton X-100, 4 μg/mL aprotinin, 100 μM phenylmethylsulfonyl fluoride, 200 μM sodium orthovanadate, 2 μg/mL leupeptin, 1 mM ditheiothreitol, and 1× Complete) at 4° C. for 15 minutes. Lysates were collected and centrifuged. Proteins were assayed (Bio-Rad Protein Assay Kit, Philadelphia, Pa., USA), and adjusted to 1 μg/μL (typically 800 to 1000 μg). Immunoprecipitation was preformed by incubating protein samples with the appropriate antibodies (typically 4 μg) or control non-immune sera at 4° C. overnight with gentle shaking. […] The immunoprecipitates were then analyzed by Western blotting in triplicates
# IL-6 receptor α = test: Western blot of IL-6 receptor α expression in MH7A cells; assay type: cell-based
# Procedure: as §1
# p53 = test: Western blot of p53 phosphorylation at serine 46 in MH7A cells; assay type: cell-based; conditions: 5 μM As2O3
# MH7A cells [6] = test: Annexin V apoptosis assay (flow cytometry); assay type: cell-based; conditions: As2O3 5 μM, representative assay
# Procedure: For apoptosis assay, 1×10^6 cells were incubated in 10-cm plates overnight, before treatment with controls or reagents for 24 hours. Cells were then trypsinized, washed twice with ice-cold phosphate buffered saline (PBS), re-suspended in 500 μL of binding buffer, and incubated on ice for 10 minutes with FITC-conjugated annexin-V and propidium iodide (PI) (Immunotech; Fullerton, Calif., USA). Apoptotic cells (annexin-V-positive, PI-negative) were enumerated by flow cytometry in triplicates (Epics, Beckman Coulter, Fullerton, Calif., USA) after appropriate color compensation. Data analysis was performed by the WinMDI 2.8 software (The Scripps Research Institute, La Jolla, Calif., USA).
# IL-6 gene = test: RT-PCR of IL-6 gene transcription in MH7A cells; assay type: cell-based
# Procedure: as §2
# [7] = oral As2O3; cited from earlier work; remark: listed apart in the source
# IL-6 receptor α gene = test: RT-PCR of IL-6 receptor α gene transcription in MH7A cells; assay type: cell-based; conditions: semi-quantitative RT-PCR
# Procedure: as §2
# MH7A cells [8] = test: Cell cycle analysis by PI staining and flow cytometry; assay type: cell-based; conditions: 5 μM As2O3, 24 hours
# Procedure: Cell cycle analysis was performed as described (Pang et al., J. Pathol. 210:19-25, (2006)), Cells were trypsinized, washed twice with ice-cold PBS, re-suspended in 500 μL PBS, and stained with PI for 10 minutes on ice (DNA Prep™, Beckman Coulter). Cell cycle was determined by flow cytometry, and data analyzed by the WinMDI 2.8 software.
# NFκB = test: Western blot of NFκB expression in MH7A cells; assay type: cell-based; conditions: dose (24 hours) and time (5 μM) dependence
# Procedure: as §1
molecule,measurement,setting,value
IL-6: recombinant human IL-6 (Peprotech),effect of exogenous IL-6 on proliferation of MH7A cells,MH7A cells [1]; 72 hours,did not increase the proliferation
tocilizumab,clinical effect in RA,[2],significant control of symptoms
infliximab,clinical effect in RA,[2],significant improvement in joint inflammation and halts the progression of joint damage
COC(=O)C[C@H](NC(=O)[C@H](C)NC(=O)[C@@H](NC(=O)OCc1ccccc1)C(C)C)C(=O)CF [Z-VAD-FMK] (Cbz-Val-Ala-Asp(OMe)-CH2F),effect of pre-incubation with inhibitor on As2O3-induced decrease in gp130,gp130 [3],had no effect
"Cl.N [NH4Cl, ammonium chloride]",effect of pre-incubation with inhibitor on As2O3-induced decrease in gp130,gp130 [3],significantly prevented
same,effect of inhibitor on As2O3-induced JNK phosphorylation/activation,"JNK; SP600125 30 μM, NH4Cl 2.5 mM",almost totally abrogated
Arsenic trioxide [As2O3],inhibition of growth of MH7A cells,"MH7A cells [1]; increasing concentrations, 24, 48 or 72 hours",dose and time dependent inhibition of growth
same,IC50,"MH7A cells [1]; read-out: 50% inhibitory concentration, growth of MH7A cells, MTT assay, 24, 48 or 72 hours",~5 µM
same,GP130 gene transcription,"GP130 gene; real-time quantitative PCR, 5 μM As2O3, 0-24 hours",no effect on GP130 gene transcription
same,gp130 gene transcription,GP130 gene; semi-quantitative RT-PCR,no effect on the transcription of both genes
same,activation of caspase 3,caspase 3,dose and time dependent activation of caspase 3
same,QT prolongation,[4],minimal QT prolongation
same,gp130 ubiquitination,gp130 [5],induced mono-ubiquitination of gp130; also recorded: gp130 is mono-ubiquitinated
same,IL-6 receptor α protein level,IL-6 receptor α,remaining unchanged
same,p53 phosphorylation at serine 46,p53,significantly increased p53 phosphorylation at serine 46
same,"annexin-V positive, propidium iodide negative (apoptotic) cells",MH7A cells [6],38.2%
same,"annexin-V positive, propidium iodide positive (dead) cells",MH7A cells [6],5.76%
same,IL-6 gene transcription,IL-6 gene,did not affect IL-6 gene transcription
same,efficacy in relapsed acute promyelocytic leukemia,[7],highly efficacious
same,gp130 protein level,gp130 [3]; Western blot,dose and time dependent decrease of gp130
same,IL-6 receptor α gene transcription,IL-6 receptor α gene,no effect on the transcription of both genes
same,cell cycle arrest,MH7A cells [8],significant G2M arrest
same,JNK phosphorylation,"JNK; 5 μM As2O3, 0-24 hours",significant increases in JNK phosphorylation
same,level of NFκB,NFκB,significantly decreased the level of NFκB
CCC[C@@H](C=O)NC(=O)[C@H](CC(C)C)NC(=O)[C@H](CC(C)C)NC(=O)OCc1ccccc1 [MG115] (Cbz-Leu-Leu-[Nva]-aldehyde),effect of pre-incubation with inhibitor on As2O3-induced decrease in gp130,gp130 [3],had no effect
